Assay results from ChEMBL document CHEMBL1145073, “DNA binding ligands targeting drug-resistant bacteria: structure, activity, and pharmacology” (J Med Chem, 2003).
Converted amounts (≈) assume the structure as drawn.

tested on: not listed separately; assay: In vitro antimicrobial activity against penicillin-intermediate Streptococcus pneumoniae 49619; assay type: functional; settings: not given

Structure (SMILES)	MIC [µg/mL]
Cn1cc(NC(=O)c2cc(NC(=O)c3cc(-c4ccc(F)cc4Cl)cn3C)cn2C)cc1C(=O)NCCN1CCOCC1	4 (≈ 6.56 µM)
Cn1cc(NC(=O)c2cc(NC(=O)c3cc(-c4ccc5nonc5c4)cn3C)cn2C)cc1C(=O)NCCN1CCOCC1	8 (≈ 13.3 µM)
Cc1cnc(-c2cc(C(=O)Nc3cc(C(=O)Nc4cc(C(=O)NCCN5CCOCC5)n(C)c4)n(C)c3)n(C)c2)cn1	0.25 (≈ 0.436 µM)
COc1ccsc1-c1cc(C(=O)Nc2cc(C(=O)Nc3cc(C(=O)NCCN4CCOCC4)n(C)c3)n(C)c2)n(C)c1	> 32
Cn1cc(NC(=O)c2cc(NC(=O)c3cc(-c4ccccc4Cl)cn3C)cn2C)cc1C(=O)NCCN1CCOCC1	32 (≈ 54 µM)
Cn1cc(NC(=O)c2cc(NC(=O)c3cc(-c4ccc5ccccc5c4)cn3C)cn2C)cc1C(=O)NCCN1CCOCC1	4 (≈ 6.58 µM)
CN1CCN(CCNC(=O)c2cc(NC(=O)c3cc(NC(=O)c4cc(NC(=O)c5sccc5Cl)cn4C)cn3C)cn2C)CC1	2 (≈ 3.06 µM)
Cn1cc(NC(=O)c2cc(NC(=O)c3cc(-c4cccc(Cl)c4)cn3C)cn2C)cc1C(=O)NCCN1CCOCC1	8 (≈ 13.5 µM)
Cn1cc(NC(=O)c2cc(NC(=O)c3cc(-c4ccc(Cl)s4)cn3C)cn2C)cc1C(=O)NCCN1CCOCC1	2 (≈ 3.34 µM)
Cn1cc(NC(=O)c2cc(NC(=O)c3cc(NC(=O)c4sc5cc(F)ccc5c4Cl)cn3C)cn2C)cc1C(=O)NCCN1CCOCC1	0.125 (≈ 0.176 µM)
Cn1cc(NC(=O)c2cc(NC(=O)c3cc(NC(=O)c4sccc4Cl)cn3C)cn2C)cc1C(=O)NCCN1CCSCC1	0.125 (≈ 0.19 µM)
Cn1cc(NC(=O)c2cc(NC(=O)c3cc(-c4ccco4)cn3C)cn2C)cc1C(=O)NCCN1CCOCC1	1 (≈ 1.83 µM)
Cn1cc(NC(=O)c2cc(NC(=O)c3cc(NC(=O)c4cc5ccccc5cn4)cn3C)cn2C)cc1C(=O)NCCN1CCSCC1	0.031 (≈ 0.0464 µM)
Cn1cc(NC(=O)c2cc(NC(=O)c3cc(NC(=O)c4sccc4Cl)cn3C)cn2C)cc1C(=O)NCCc1ccccn1	2 (≈ 3.16 µM)
Cc1nnsc1-c1cc(C(=O)Nc2cc(C(=O)Nc3cc(C(=O)NCCN4CCOCC4)n(C)c3)n(C)c2)n(C)c1	2 (≈ 3.45 µM)

tested on: Mus musculus; assay: Acute tolerability of compound in 4 ICR female mice after intravenous administration was determined; No adverse effects; assay type: functional, organism-based; settings: not given

Structure (SMILES)	Acute tolerability
Cn1cc(NC(=O)c2cc(NC(=O)c3cc(NC(=O)c4sc5cc(F)ccc5c4Cl)cn3C)cn2C)cc1C(=O)NCCN1CCOCC1	No adverse effects
Cn1cc(NC(=O)c2cc(NC(=O)c3cc(NC(=O)c4sccc4Cl)cn3C)cn2C)cc1C(=O)NCCN1CCSCC1	No adverse effects
Cn1cc(NC(=O)c2cc(NC(=O)c3cc(NC(=O)c4cc5ccccc5cn4)cn3C)cn2C)cc1C(=O)NCCN1CCSCC1	No adverse effects

tested on: Staphylococcus aureus; assay: In vitro antimicrobial activity against MSSA 13709; assay type: functional; settings: not given

Structure (SMILES)	MIC [µg/mL]
Cn1cc(NC(=O)c2cc(NC(=O)c3cc(-c4ccc(F)cc4Cl)cn3C)cn2C)cc1C(=O)NCCN1CCOCC1	16 (≈ 26.2 µM)

tested on: Enterococcus faecalis; assay: In vitro antimicrobial activity against vancomycin-susceptible Enterococcus faecalis 29212; assay type: functional; settings: not given

Structure (SMILES)	MIC [µg/mL]
Cn1cc(NC(=O)c2cc(NC(=O)c3cc(-c4ccc(F)cc4Cl)cn3C)cn2C)cc1C(=O)NCCN1CCOCC1	8 (≈ 13.1 µM)
Cn1cc(NC(=O)c2cc(NC(=O)c3cc(-c4ccc5nonc5c4)cn3C)cn2C)cc1C(=O)NCCN1CCOCC1	8 (≈ 13.3 µM)
Cc1cnc(-c2cc(C(=O)Nc3cc(C(=O)Nc4cc(C(=O)NCCN5CCOCC5)n(C)c4)n(C)c3)n(C)c2)cn1	0.5 (≈ 0.872 µM)
COc1ccsc1-c1cc(C(=O)Nc2cc(C(=O)Nc3cc(C(=O)NCCN4CCOCC4)n(C)c3)n(C)c2)n(C)c1	> 32
Cn1cc(NC(=O)c2cc(NC(=O)c3cc(-c4ccccc4Cl)cn3C)cn2C)cc1C(=O)NCCN1CCOCC1	16 (≈ 27 µM)
Cn1cc(NC(=O)c2cc(NC(=O)c3cc(-c4ccc5ccccc5c4)cn3C)cn2C)cc1C(=O)NCCN1CCOCC1	4 (≈ 6.58 µM)
CN1CCN(CCNC(=O)c2cc(NC(=O)c3cc(NC(=O)c4cc(NC(=O)c5sccc5Cl)cn4C)cn3C)cn2C)CC1	32 (≈ 48.9 µM)
Cn1cc(NC(=O)c2cc(NC(=O)c3cc(-c4cccc(Cl)c4)cn3C)cn2C)cc1C(=O)NCCN1CCOCC1	8 (≈ 13.5 µM)
Cn1cc(NC(=O)c2cc(NC(=O)c3cc(-c4ccc(Cl)s4)cn3C)cn2C)cc1C(=O)NCCN1CCOCC1	2 (≈ 3.34 µM)
Cn1cc(NC(=O)c2cc(NC(=O)c3cc(NC(=O)c4sc5cc(F)ccc5c4Cl)cn3C)cn2C)cc1C(=O)NCCN1CCOCC1	0.25 (≈ 0.353 µM)
Cn1cc(NC(=O)c2cc(NC(=O)c3cc(NC(=O)c4sccc4Cl)cn3C)cn2C)cc1C(=O)NCCN1CCSCC1	0.5 (≈ 0.761 µM)
Cn1cc(NC(=O)c2cc(NC(=O)c3cc(-c4ccco4)cn3C)cn2C)cc1C(=O)NCCN1CCOCC1	32 (≈ 58.4 µM)
Cn1cc(NC(=O)c2cc(NC(=O)c3cc(NC(=O)c4cc5ccccc5cn4)cn3C)cn2C)cc1C(=O)NCCN1CCSCC1	0.25 (≈ 0.374 µM)
Cn1cc(NC(=O)c2cc(NC(=O)c3cc(NC(=O)c4sccc4Cl)cn3C)cn2C)cc1C(=O)NCCc1ccccn1	2 (≈ 3.16 µM)
Cc1nnsc1-c1cc(C(=O)Nc2cc(C(=O)Nc3cc(C(=O)NCCN4CCOCC4)n(C)c3)n(C)c2)n(C)c1	8 (≈ 13.8 µM)

tested on: Candida albicans; assay: In vitro antimicrobial activity against Candida albicans 38247; assay type: functional; settings: Candida albicans; read-out: MIC

Structure (SMILES)	MIC [µg/mL]
Cc1cnc(-c2cc(C(=O)Nc3cc(C(=O)Nc4cc(C(=O)NCCN5CCOCC5)n(C)c4)n(C)c3)n(C)c2)cn1	> 32
Cn1cc(NC(=O)c2cc(NC(=O)c3cc(NC(=O)c4sc5cc(F)ccc5c4Cl)cn3C)cn2C)cc1C(=O)NCCN1CCOCC1	> 32
Cn1cc(NC(=O)c2cc(NC(=O)c3cc(NC(=O)c4sccc4Cl)cn3C)cn2C)cc1C(=O)NCCN1CCSCC1	> 32
Cn1cc(NC(=O)c2cc(NC(=O)c3cc(NC(=O)c4cc5ccccc5cn4)cn3C)cn2C)cc1C(=O)NCCN1CCSCC1	> 32

tested on: Bacillus cereus; assay: In vitro antimicrobial activity against Bacillus cereus 11778; assay type: functional; settings: not given

Structure (SMILES)	MIC [µg/mL]
Cc1cnc(-c2cc(C(=O)Nc3cc(C(=O)Nc4cc(C(=O)NCCN5CCOCC5)n(C)c4)n(C)c3)n(C)c2)cn1	1 (≈ 1.74 µM)
Cn1cc(NC(=O)c2cc(NC(=O)c3cc(NC(=O)c4sc5cc(F)ccc5c4Cl)cn3C)cn2C)cc1C(=O)NCCN1CCOCC1	0.25 (≈ 0.353 µM)
Cn1cc(NC(=O)c2cc(NC(=O)c3cc(NC(=O)c4sccc4Cl)cn3C)cn2C)cc1C(=O)NCCN1CCSCC1	0.5 (≈ 0.761 µM)
Cn1cc(NC(=O)c2cc(NC(=O)c3cc(NC(=O)c4cc5ccccc5cn4)cn3C)cn2C)cc1C(=O)NCCN1CCSCC1	0.25 (≈ 0.374 µM)

tested on: Mus musculus; assay: Acute tolerability of compound […] female mice after intravenous administration was determined; Lethality 5/5; assay type: functional, organism-based; settings: not given

Structure (SMILES)	Acute tolerability
Cc1cnc(-c2cc(C(=O)Nc3cc(C(=O)Nc4cc(C(=O)NCCN5CCOCC5)n(C)c4)n(C)c3)n(C)c2)cn1	Lethality 5/5

biological target: Nucleic Acid; assay: Apparent binding affinity against DNA (5'-ACAATTAA-3') was determined using DNase I footprinting titration method; assay type: nucleic-acid assay; settings: read-out: Kd app

Structure (SMILES)	Kd [nM]
Cn1cc(NC(=O)c2cc(NC(=O)c3cc(NC(=O)c4sccc4Cl)cn3C)cn2C)cc1C(=O)NCCN1CCSCC1	< 1
Cn1cc(NC(=O)c2cc(NC(=O)c3cc(NC(=O)c4cc5ccccc5cn4)cn3C)cn2C)cc1C(=O)NCCN1CCSCC1	1
Cn1cc(NC(=O)c2cc(NC(=O)c3cc(NC(=O)c4sccc4Cl)cn3C)cn2C)cc1C(=O)NCCc1ccccn1	100

tested on: Staphylococcus aureus; assay: In vitro antimicrobial activity against methicillin resistant Staphylococcus aureus 27660; assay type: functional; settings: not given

Structure (SMILES)	MIC [µg/mL]
Cn1cc(NC(=O)c2cc(NC(=O)c3cc(-c4ccc5nonc5c4)cn3C)cn2C)cc1C(=O)NCCN1CCOCC1	8 (≈ 13.3 µM)
Cc1cnc(-c2cc(C(=O)Nc3cc(C(=O)Nc4cc(C(=O)NCCN5CCOCC5)n(C)c4)n(C)c3)n(C)c2)cn1	2 (≈ 3.49 µM)
COc1ccsc1-c1cc(C(=O)Nc2cc(C(=O)Nc3cc(C(=O)NCCN4CCOCC4)n(C)c3)n(C)c2)n(C)c1	32 (≈ 53.9 µM)
Cn1cc(NC(=O)c2cc(NC(=O)c3cc(-c4ccccc4Cl)cn3C)cn2C)cc1C(=O)NCCN1CCOCC1	32 (≈ 54 µM)
Cn1cc(NC(=O)c2cc(NC(=O)c3cc(-c4ccc5ccccc5c4)cn3C)cn2C)cc1C(=O)NCCN1CCOCC1	8 (≈ 13.2 µM)
CN1CCN(CCNC(=O)c2cc(NC(=O)c3cc(NC(=O)c4cc(NC(=O)c5sccc5Cl)cn4C)cn3C)cn2C)CC1	4 (≈ 6.11 µM)
Cn1cc(NC(=O)c2cc(NC(=O)c3cc(-c4cccc(Cl)c4)cn3C)cn2C)cc1C(=O)NCCN1CCOCC1	8 (≈ 13.5 µM)
Cn1cc(NC(=O)c2cc(NC(=O)c3cc(-c4ccc(Cl)s4)cn3C)cn2C)cc1C(=O)NCCN1CCOCC1	4 (≈ 6.69 µM)
Cn1cc(NC(=O)c2cc(NC(=O)c3cc(NC(=O)c4sccc4Cl)cn3C)cn2C)cc1C(=O)NCCN1CCSCC1	1 (≈ 1.52 µM)
Cn1cc(NC(=O)c2cc(NC(=O)c3cc(-c4ccco4)cn3C)cn2C)cc1C(=O)NCCN1CCOCC1	32 (≈ 58.4 µM)
Cn1cc(NC(=O)c2cc(NC(=O)c3cc(NC(=O)c4cc5ccccc5cn4)cn3C)cn2C)cc1C(=O)NCCN1CCSCC1	0.125 (≈ 0.187 µM)
Cn1cc(NC(=O)c2cc(NC(=O)c3cc(NC(=O)c4sccc4Cl)cn3C)cn2C)cc1C(=O)NCCc1ccccn1	2 (≈ 3.16 µM)
Cc1nnsc1-c1cc(C(=O)Nc2cc(C(=O)Nc3cc(C(=O)NCCN4CCOCC4)n(C)c3)n(C)c2)n(C)c1	16 (≈ 27.6 µM)

tested on: not listed separately; assay: In vitro antimicrobial activity against penicillin resistant Streptococcus pneumoniae 51422; assay type: functional; settings: not given

Structure (SMILES)	MIC [µg/mL]
Cc1cnc(-c2cc(C(=O)Nc3cc(C(=O)Nc4cc(C(=O)NCCN5CCOCC5)n(C)c4)n(C)c3)n(C)c2)cn1	0.25 (≈ 0.436 µM)
Cn1cc(NC(=O)c2cc(NC(=O)c3cc(NC(=O)c4sccc4Cl)cn3C)cn2C)cc1C(=O)NCCN1CCSCC1	0.062 (≈ 0.0943 µM)
Cn1cc(NC(=O)c2cc(NC(=O)c3cc(NC(=O)c4cc5ccccc5cn4)cn3C)cn2C)cc1C(=O)NCCN1CCSCC1	0.062 (≈ 0.0928 µM)

tested on: Enterococcus faecalis; assay: In vitro antimicrobial activity against vancomycin-resistant Enterococcus faecalis 51559; assay type: functional; settings: not given

Structure (SMILES)	MIC [µg/mL]
Cc1cnc(-c2cc(C(=O)Nc3cc(C(=O)Nc4cc(C(=O)NCCN5CCOCC5)n(C)c4)n(C)c3)n(C)c2)cn1	4 (≈ 6.97 µM)
Cn1cc(NC(=O)c2cc(NC(=O)c3cc(NC(=O)c4sccc4Cl)cn3C)cn2C)cc1C(=O)NCCN1CCSCC1	2 (≈ 3.04 µM)
Cn1cc(NC(=O)c2cc(NC(=O)c3cc(NC(=O)c4cc5ccccc5cn4)cn3C)cn2C)cc1C(=O)NCCN1CCSCC1	0.125 (≈ 0.187 µM)
